Reference: patent US8575094B2, “Use of type-B lantibiotic-based compounds having antimicrobial activity” (Novacta Biosystems Limited, priority 2007, dated 2013)
Converted amounts (≈) assume the structure as drawn. Like-named read-outs stand apart in the source and are kept apart here.

How the values were obtained:
[1] = test system: Clostridium difficile; experiment: microbe, parasite or virus in culture; format: cell-based; conditions: Clostridioides difficile
Text: Compounds I to VII were screened against twelve clinical isolates of Clostridium difficile.
In addition, compounds L to LIII were screened against […] isolates of Clostridium difficile.

[2] = test system: C. difficile spores; experiment: Sporicidal activity: viable counts of C. difficile spores exposed to antibiotics; format: cell-based
Text: An agent capable of killing, or preventing the successful germination of C. difficile spores would therefore be of considerable interest. To determine the effects of type B lantibiotics on C. difficile spores, suspensions of spores were exposed to antibiotics ([…]) and aliquots were taken at appropriate time points. The spores in each aliquot were filtered off and plated out on to Brazier's agar.

[3] = test system: C. difficile strain VPI 10463; format: in vivo; conditions: hamster, three times daily at 50 mg/kg/day, 5-day dosing period
Experimental: The in vivo efficacy of two type B Lantibiotics in the treatment of C. difficile infections was evaluated in the standard animal model for CDAD: clindamycin-induced cecitis in hamster (FIG. 3). Four groups of six animals were dosed orally with approximately 10^7 cells of C. difficile strain VPI 10463 and 24 hours later with a subcutaneous dose of 10 mg/kg clindamycin phosphate.

[4] = test system: E. coli; experiment: microbe, parasite or virus in culture; conditions: Escherichia coli
[5] = test system: E. faecium; experiment: microbe, parasite or virus in culture; conditions: Enterococcus faecium
[6] = test system: E. faecalis; experiment: microbe, parasite or virus in culture; conditions: Enterococcus faecalis
[7] = test system: Bifidobacterium adolescentis NCTC 11814; experiment: microbe, parasite or virus in culture; conditions: NCTC11814, read-out: Minimal Inhibitory Concentration (MIC)
[8] = test system: Bifidobacterium longum NCTC 11818; experiment: microbe, parasite or virus in culture; conditions: NCTC11818, read-out: Minimal Inhibitory Concentration (MIC)
[9] = test system: Bacteroides fragilis NCTC 9343; experiment: microbe, parasite or virus in culture; conditions: NCTC9343, read-out: Minimal Inhibitory Concentration (MIC)
[10] = test system: Bacteroides thetaiotaomicron NCTC 10582; experiment: microbe, parasite or virus in culture; conditions: NCTC10582, read-out: Minimal Inhibitory Concentration (MIC)
[11] = VRE, read-out: Minimal Inhibitory Concentration (MIC)

CN[C@H](CC(C)C)C(=O)N[C@H]1C(=O)N[C@@H](CC(N)=O)C(=O)N[C@H]2C(=O)N[C@H]3C(=O)N[C@H](C(=O)N[C@H](C(=O)O)c4cc(O)cc(O)c4-c4cc3ccc4O)[C@H](O)c3ccc(c(Cl)c3)Oc3cc2cc(c3O[C@@H]2O[C@H](CO)[C@@H](O)[C@H](O)[C@H]2O[C@H]2C[C@](C)(N)[C@H](O)[C@H](C)O2)Oc2ccc(cc2Cl)[C@H]1O [Vancomycin]
MIC ([1]; read-out: Minimal Inhibitory Concentration (MIC), C. difficile strain 027C): 1 µg/mL (≈ 0.69 µM)
MIC ([1]; read-out: Minimal Inhibitory Concentration (MIC), C. difficile strain 27SM): 1 µg/mL (≈ 0.69 µM)
MIC ([1]; read-out: Minimal Inhibitory Concentration (MIC), C. difficile strain 19126): 1 µg/mL (≈ 0.69 µM)
MIC ([1]; read-out: Minimal Inhibitory Concentration (MIC), C. difficile strain 37779): 2 µg/mL (≈ 1.38 µM)
MIC ([1]; read-out: Minimal Inhibitory Concentration (MIC), C. difficile strain B32): 1 µg/mL (≈ 0.69 µM)
MIC ([1]; read-out: Minimal Inhibitory Concentration (MIC), C. difficile strain E4): 1 µg/mL (≈ 0.69 µM)
MIC ([1]; read-out: Minimal Inhibitory Concentration (MIC), C. difficile strain E16): 0.5 µg/mL (≈ 0.345 µM)
MIC ([1]; read-out: Minimal Inhibitory Concentration (MIC), C. difficile strain E101): 0.5 µg/mL (≈ 0.345 µM)
MIC ([1]; read-out: Minimal Inhibitory Concentration (MIC), C. difficile strain P24): 0.5 µg/mL (≈ 0.345 µM)
MIC ([1]; read-out: Minimal Inhibitory Concentration (MIC), C. difficile strain P49): 1 µg/mL (≈ 0.69 µM)
MIC ([1]; read-out: Minimal Inhibitory Concentration (MIC), C. difficile strain P59): 1 µg/mL (≈ 0.69 µM)
MIC ([1]; read-out: Minimal Inhibitory Concentration (MIC), C. difficile strain P62): 1 µg/mL (≈ 0.69 µM)
Effect on C. difficile spore viability / germination ([2]; […]): no significant effect on spore viability
Viable counts of C. difficile spores ([2]; antibiotic at 100 µg/ml, time 24 h): 135
Survival of infected animals [3]: survived for the duration of the entire 5-day dosing period
MIC ([4]; ATCC25922, read-out: Minimal Inhibitory Concentration (MIC)): > 64 µg/mL
MIC ([4]; read-out: Minimal Inhibitory Concentration (MIC)): > 64 µg/mL
MIC ([5]; ATCC19579, read-out: Minimal Inhibitory Concentration (MIC)): 0.5 µg/mL (≈ 0.345 µM)
MIC [5, 11]: > 64 µg/mL
MIC ([6]; ATCC29212, read-out: Minimal Inhibitory Concentration (MIC)): 4 µg/mL (≈ 2.76 µM)
MIC [6, 11]: > 64 µg/mL
MIC [7]: 1 µg/mL (≈ 0.69 µM)
MIC [8]: 1 to 2 µg/mL (≈ 0.69 to 1.38 µM)
MIC [9]: 32 µg/mL (≈ 22.1 µM)
MIC [10]: 64 µg/mL (≈ 44.2 µM)
